Measured values taken from PubChem BioAssay (NCI).
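These data come from cells grown in 96-well plates and exposed to compound for 48 hours at five concentrations. The concentration for 50% growth inhibition is given as GI50. TGI marks complete inhibition of growth.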

Columns and labels:
Experiment in all cases: inhibition of tumour cell growth, NCI panel, 48 h
MCF7 breast = system: MCF7 breast
HOP-62 NSCLC = system: HOP-62 NSCLC
SW-620 colon = system: SW-620 colon
UO-31 renal = system: UO-31 renal
UACC-257 melanoma = system: UACC-257 melanoma
NCI-H226 lung = system: NCI-H226 lung
HCC-2998 colon = system: HCC-2998 colon
ACHN renal = system: ACHN renal
786-0 renal = system: 786-0 renal
SR leukemia = system: SR leukemia

Row | Structure (SMILES) | GI50 (MCF7 breast) [µM] | TGI (MCF7 breast) [µM] | GI50 (HOP-62 NSCLC) [µM] | TGI (HOP-62 NSCLC) [µM] | GI50 (SW-620 colon) [µM] | TGI (SW-620 colon) [µM] | GI50 (UO-31 renal) [µM] | TGI (UO-31 renal) [µM] | GI50 (UACC-257 melanoma) [µM] | TGI (UACC-257 melanoma) [µM] | GI50 (NCI-H226 lung) [µM] | TGI (NCI-H226 lung) [µM] | GI50 (HCC-2998 colon) [µM] | TGI (HCC-2998 colon) [µM] | GI50 (ACHN renal) [µM] | TGI (ACHN renal) [µM] | GI50 (786-0 renal) [µM] | TGI (786-0 renal) [µM] | TGI (SR leukemia) [µM] | GI50 (SR leukemia) [µM]
1 | COc1cc(NCCC2CCCCN2)c2ncccc2c1OC (centres undefined) | 3.19 | 15.2 | 17.3 | 32.4 | 5.5 | 21.2 | 14.9 | 36.7 | 2.79 | 9.36 | 23.5 | 46.8 | 16.9 | 31.8 | 21.2 | 89.9 | 14.5 | 36.9 |  | 
2 | O=C(OCc1ccccc1)n1cccc1 |  |  |  | > 100 |  | > 100 |  | > 100 |  | > 100 |  | > 100 |  | > 100 |  | > 100 |  | > 100 | > 100 | 
3 | C=C1C(C(=O)O)C1C(=O)O (centres undefined) |  |  |  | > 100 |  | > 100 |  | > 100 |  | > 100 |  | > 100 |  | > 100 |  | > 100 |  | > 100 | > 100 | 
4 | CC(C)(C)OC1=C(OC(C)(C)C)C(O)(c2ccc(Cl)cc2)C1=O (centres undefined) |  |  |  |  |  | > 100 |  | > 100 |  |  |  |  |  | > 100 |  | > 100 |  | > 100 | > 100 | 
5 | Cc1ccc(/C(=C/C=C(C#N)C#N)Sc2nc3ccccc3s2)cc1 | 4.3 | 32.7 | 10.1 | 30.3 | 2.42 | 5.73 | 3.41 | 22.5 | 12.1 | 27.3 | 3.5 | 8.01 |  |  |  |  | 2.43 | 6.78 | > 100 | > 100
6 | CC[P+]1(c2ccccc2)CCCCC1 |  |  |  | > 100 |  | > 100 |  | > 100 |  | > 100 |  | > 100 |  | > 100 |  | > 100 |  | > 100 | > 100 | 
7 | Oc1cc(O)c2c(c1)OC(c1ccc(O)c(O)c1)C(O)C2c1c(O)cc(O)c2c1OC(c1ccc(O)c(O)c1)C(O)C2 (centres undefined) |  | > 100 |  | > 100 |  | > 100 |  | > 100 |  | > 100 |  | > 100 |  |  |  | > 100 |  | > 100 |  | 
8 | O=C1C2C3C=C4c5ccccc5N(c5ccccc5)C4([C@@H]2C(=O)N1c1ccc(F)cc1)[C@H]1C(=O)N(c2ccc(F)cc2)C(=O)[C@@H]31 (some centres undefined) |  |  |  |  |  | > 100 |  | 88.6 |  | > 100 |  | > 100 |  | > 100 |  | > 100 |  | > 100 | > 100 | 
9 | Cc1ccc(C2C3Cc4ccccc4C3=NN2c2ccc(S(=O)(=O)NC(=O)Nc3ccccc3)cc2)cc1 (centres undefined) | 17.1 | > 100 | 19.3 | 63 | 13.1 | 26 | 11.6 | 28.4 | 18.6 | 37.8 | 15.9 | 49.2 |  |  | 14.1 | 27.5 | 12.8 | 36.5 | 16.1 | 2.51
10 | N#CC(C#N)=C1CCC2C(=C(C#N)C#N)CCC12 (centres undefined) |  |  |  | > 100 |  | > 100 |  | > 100 |  | > 100 |  | > 100 |  | > 100 |  |  |  | > 100 | > 100 | 
11 | CSc1cc(C(C)(C)C)ccc1C(O)c1ccc(C(C)(C)C)cc1SC |  |  |  | 27.3 |  | 23.9 |  | 18.6 |  | 25.5 |  | 27 |  | 32.1 |  | 23.6 |  | 22.7 | 32.2 | 
12 | C=CCC1C(=O)CC2(C)C(CC=C)C(=O)CC12C (centres undefined) |  |  |  | > 100 |  | > 100 |  | > 100 |  | > 100 |  | > 100 |  | > 100 |  | > 100 |  | > 100 | > 100 | 
13 | N#CC1=C(c2ccccc2)OC2(N)OC(c3ccccc3)=C(C#N)C12C#N (centres undefined) |  |  |  | > 100 |  | > 100 |  | > 100 |  | > 100 |  |  |  | > 100 |  | > 100 |  | > 100 |  | 
14 | CC1OC(CC2C=CCc3c(O)c4c(c(O)c32)C(=O)c2ccccc2C4=O)CC(NC(=O)C(F)(F)F)C1O (centres undefined) |  |  |  | 19 |  | 81.5 |  | 42.7 |  | 26.8 |  | 31.6 |  | > 100 |  | 25.1 |  | 23.2 | 13.5 | 
15 | Cc1ccc(NC(=O)CCC(=O)C2Cc3ccccc3C2=O)cc1C (centres undefined) |  |  |  | > 100 |  | > 100 |  | > 100 |  | > 100 |  | > 100 |  | > 100 |  | > 100 |  | > 100 | > 100 | 
16 | CN(C)CCNC(=O)c1cccc2c1nc(-c1ccncc1)c1ccccc12 |  |  |  | 19.5 |  | 19.1 |  | 6.08 |  | 12.6 |  | 10.5 |  | 16.7 |  | 10.6 |  | 17.8 |  | 
17 | c1ccc(/C(=N\Nc2nc3ccccc3s2)c2ccccn2)cc1 |  | > 72.5 |  | 97.8 |  | > 100 |  | 16.3 |  | > 25.9 |  | 29.7 |  | 46 |  | > 28.8 |  | 24.4 |  | 
18 | O=C1CCc2ccc(O)c(c2)Oc2ccc(cc2)[C@@H]2O[C@@H]2CO1 |  |  |  | > 100 |  | > 100 |  | > 100 |  | > 100 |  | > 100 |  | > 100 |  | > 100 |  | > 100 | > 100 | 
19 | CC(=O)[CH-]C(=O)c1ccccc1.CC(=O)[CH-]C(=O)c1ccccc1.CC(=O)[CH-]C(=O)c1ccccc1.[Br-].[Zr+4] |  |  | 64 | > 100 | > 100 | > 100 |  |  | 48.2 | > 100 |  |  |  |  | 54.3 | > 100 | 67.1 | > 100 |  | 
20 | CCOC(=O)c1cc(C(=O)c2cc(OC)c(OC)c(OC)c2)n2ccc(-c3cc[n+](CC(=O)c4cc(OC)c(OC)c(OC)c4)cc3)cc12 |  |  |  |  | 1.76 | 3.47 | 7.97 | 26.5 | 3.13 | 7.04 | 2.37 | 6.62 | 3.32 | 15.1 | 3.33 | 13.6 | 1.75 | 3.39 |  | 
21 | CCc1ccccc1NC(=O)C(=O)C(C#N)c1c(Cl)cccc1Cl (centres undefined) |  |  |  |  |  | > 100 |  | > 100 |  | > 100 |  | > 100 |  |  |  | > 100 |  | > 100 | > 100 | 
22 | CCOP(=O)(OCC)C(NC(c1ccccc1)c1ccccc1)c1ccc(C(C)C)cc1 (centres undefined) | 3.06 | 11.4 | 6.08 | 18.8 | 4.08 | 20.3 | 7.45 | 28.9 |  |  |  |  | 5.49 | 18.2 | 2.64 | 7.27 | 5.6 | 18.9 |  | 
23 | C/C=C1/C(=Cc2[nH]c(C=c3[nH]/c(=C/C4=NC(=O)C(CC)=C4C)c(C)c3CCC(=O)O)c(CCC(=O)O)c2C)NC(=O)C1C (centres undefined) |  |  |  | 15.9 |  | > 50 |  | 20.1 |  | 24.9 |  | 10.8 |  | > 50 |  | > 50 |  | > 50 | > 50 | 
24 | O=C(O)CCSC(=O)Nc1ccccc1 |  |  |  | > 100 |  | > 100 |  | > 100 |  | > 100 |  | > 100 |  | > 100 |  | > 100 |  | > 100 | > 100 | 
25 | FC(F)(F)c1nc(Br)[nH]c1C(F)(F)F |  |  |  | 91.9 |  | > 100 |  | > 100 |  | > 100 |  | > 100 |  | > 100 |  | > 100 |  | > 100 | > 100 | 
26 | O=C(NCc1ccccc1)C1C(=O)C(=O)N(Cc2ccccc2)C1=O (centres undefined) |  |  |  | > 100 |  | > 100 |  | > 100 |  | > 100 |  | > 100 |  | > 100 |  | > 100 |  | > 100 | > 100 | 
27 | N/C(=N/S(=O)(=O)c1cc(C(=O)Nc2ccc(F)cc2)c(Cl)cc1SCc1ccccc1)Nc1ccccc1O | 2.79 | 6.13 | 2.04 | 4.52 | 1.88 | 3.54 | 17.3 | 37.4 | 12.2 | 26.7 | 16.3 | 30.9 | 2.86 | 7.34 | 18.9 | > 100 | 2.3 | 6.01 |  | 
28 | CCOC(=O)c1ccc(NC(=O)c2cccc(NC3=C(Cl)C(=O)N(Cc4ccccc4)C3=O)c2)cc1 | 51.3 | > 100 | > 100 | > 100 | > 100 | > 100 |  |  | > 100 | > 100 | > 100 | > 100 |  |  | > 100 | > 100 | > 100 | > 100 |  | 
29 | CC1(C)CC[C@]2(CO)CC[C@]3(C)C(=CC[C@@H]4[C@@]5(C)CCNCC(C)(C)[C@@H]5CC[C@]43C)[C@@H]2C1 | 3.07 | 13.3 | 3.65 | 15.3 | 1.97 | 4.41 | 5.33 | 21.2 | 2.33 | 5.79 | 16.8 | 35.5 | 1.89 | 4.07 | 4.91 | 16.6 | 3.8 | 15 |  | 
